How the values were obtained:
[1] = target: T1, human endothelin-A (ETA) receptors (Homo sapiens, UniProt P25101); assay: Binding Test to ETA receptor expressed in an insect cell Sf9 ([125I]endothelin-1 displacement); settings: Sf9 membrane fractions; [125I]endothelin-1; 25°C, 60 minutes; concentration causing PMB=50%; read-out: IC50 value: µM Human endotherin-A receptor
T1 construct: made in house; host or cells: Sf9 insect cells (membrane fractions)
T1 sequence (P25101 21-427): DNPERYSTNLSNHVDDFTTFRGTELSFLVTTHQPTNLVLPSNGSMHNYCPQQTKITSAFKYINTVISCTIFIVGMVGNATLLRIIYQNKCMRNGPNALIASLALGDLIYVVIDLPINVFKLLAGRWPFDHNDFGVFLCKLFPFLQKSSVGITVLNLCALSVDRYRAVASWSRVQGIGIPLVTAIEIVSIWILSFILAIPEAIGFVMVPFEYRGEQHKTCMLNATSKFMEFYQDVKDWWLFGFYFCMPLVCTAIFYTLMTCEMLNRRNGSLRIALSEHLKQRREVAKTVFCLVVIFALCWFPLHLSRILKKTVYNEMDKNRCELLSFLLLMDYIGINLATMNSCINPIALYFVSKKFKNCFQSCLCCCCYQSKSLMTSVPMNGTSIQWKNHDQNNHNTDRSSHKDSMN
Procedure: Binding Test to ETA receptor expressed in an insect cell Sf9:
(§1) Endothelin (ET) receptors were prepared by diluting fractions of insect cell (Sf9) membrane having human endothelin-A (ETA) receptors expressed, with an assay buffer {20 mM Tris-HCl, 2 mM EGTA (ethyleneglycol bls(2-aminoethylether) tetra acetic acid), 5 mM magnesium acetate, 0.1% BSA (bovine serum albumin), 0.03% NaN3, 0.5 mM PMSF (phenyl methyl sulfonyl fluoride), 20 µg/ml leupeptin, 4 µg/ml E-64 (products of the Peptide Institute, Japan), 1 µg/ml pepstatin, (pH 7.2)} respectively in a concentration of 1.4 µg/ml in the former case and 0.7 µg/ml in the latte case.
To 100 µl of each portion was added 5 nM[^125I] endothelin-1 (2 µl). A dimethylsulfoxide solution (3 µl) of the test compound was added thereto and incubated at 25°C for 60 minutes.
And, to determine the maximum binding amount (B0) and non-specific binding amount (NSB), lots to which a dimethyl sulfoxide solution (3 µl) or a dimethyl sulfoxide solution (3 µl) containing endothelin-1 (10^-3M) had been added, were also incubated.
These lots were supplemented with 0.05% CHAPS(3-[(3-chloroamidopropyl)dimethylammonio]-1-propanesulfonate)-assay buffer (1.5 ml), subjected to filtration through a glass fiber filter GF/F (trade name; product of Whatman Ltd. (England)), and then washed with the same buffer (1.5 ml)).
(§2) Radioactivity on the filter was counted in a gamma-counter to determine the Percent Maximum Binding (PMB) in accordance with the aforesaid calculation formula. The concentration causing PMB=50% was determined as IC50 value.

[2] = target: T2, human endothelin-B (ETB) receptors (Homo sapiens, UniProt P24530); assay: Binding Test to ETB receptor expressed in an insect cell Sf9 ([125I]endothelin-1 displacement); settings: Sf9 membrane fractions; [125I]endothelin-1; 25°C, 60 minutes; concentration causing PMB=50%; read-out: IC50 value: µM Human endotherin-B receptor
T2 construct: made in house; host or cells: Sf9 insect cells (membrane fractions)
T2 sequence (P24530 27-442): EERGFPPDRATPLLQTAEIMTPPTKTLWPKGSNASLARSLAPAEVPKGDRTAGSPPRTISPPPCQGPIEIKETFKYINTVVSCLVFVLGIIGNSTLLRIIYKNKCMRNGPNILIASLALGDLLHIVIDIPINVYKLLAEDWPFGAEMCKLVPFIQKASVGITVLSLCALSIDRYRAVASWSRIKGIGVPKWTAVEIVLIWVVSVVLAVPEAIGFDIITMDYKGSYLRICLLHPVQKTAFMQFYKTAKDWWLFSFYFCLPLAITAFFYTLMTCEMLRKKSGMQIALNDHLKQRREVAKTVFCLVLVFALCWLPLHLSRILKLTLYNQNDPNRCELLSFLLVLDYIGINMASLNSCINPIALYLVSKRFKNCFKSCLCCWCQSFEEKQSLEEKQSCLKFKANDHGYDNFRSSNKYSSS
Procedure: Binding Test to ETB receptor expressed in an insect cell Sf9:
as §1, with “endothelin-B (ETB)” for “endothelin-A (ETA)”, “{200” for “{20”, “(ethylenegiycol bis(2-aminoethylether)” for “(ethyleneglycol bls(2-aminoethylether)”, “PMSF(phenyl” for “PMSF (phenyl”, “Institute),” for “Institute, Japan),”, “latter” for “latte”
To 100 µl of each portion was added 5 nM[^125I] endothelin-1 (2 µl). A dimethylsulfoxide solution (3 µl) of the sample was added thereto and incubated at 25°C fpr 60 minutes.
And, to determine the maximum binding amount (B0) and non-specific binding amount (NSB), lots to which a dimethyl sulfoxide solution (3 µl) or a dimethyl sulfoxide solution (3 µl) containing endothelin-1 (10^-5M) had been added, were also incubated.
These lots were supplemented with 0.05% CHAPS(3-[(3-chloroamidopropyl)dimethylammonio]-1-propanesulfonate)-assay buffer (1.5 ml), subjected to filtration through a glass fiber filter GF/F (trade name; product of Whatman Ltd. (England)), and then washed with the same buffer (1.5 ml).
as §2

| SMILES | IC50 [1] | IC50 [2] |
| --- | --- | --- |
| CCCOc1ccc(-c2sc3c(c2CNS(C)(=O)=O)c(=O)n(CC(=O)O)c(=O)n3Cc2ccccc2SC)cc1 [11(7), 2,4(1H,3H)-Dioxo-6-(4-propoxyphenyl)-1-(2-methylthiobenzyl)-5-(methanesulfonamidomethyl)-thieno[2,3-d]pyrimidine-3-acetic acid] | 0.018 µM | 0.22 µM |
| CCCOc1ccc(-c2sc3c(c2CNS(=O)(=O)CC)c(=O)n(CC(=O)O)c(=O)n3Cc2ccccc2SC)cc1 [11(9), 2,4(1H,3H)-Dioxo-6-(4-propoxyphenyl)-1-(2-methylthiobenzyl)-5-(ethanesulfonamidomethyl)-thieno[2,3-d]pyrimidine-3-acetic acid] | 0.015 µM | 0.11 µM |
| CCCS(=O)(=O)NCc1c(-c2ccc(OCOC)cc2)sc2c1c(=O)n(CC(=O)O)c(=O)n2Cc1ccccc1SC [11(17)] | 0.022 µM | 0.047 µM |

Second part, the molecule after the results:

| IC50 [1] | IC50 [2] | SMILES |
| --- | --- | --- |
| 0.0066 µM | 0.09 µM | COCOc1ccc(-c2sc3c(c2CNS(=O)(=O)C(C)C)c(=O)n(CC(=O)O)c(=O)n3Cc2ccccc2SC)cc1 [11(11), 2,4(1H,3H)-Dioxo-6-(4-methoxymethoxyphenyl)-1-(2-methylthiobenzyl)-5-(isopropanesulfonamidomethyl)thieno[2,3-d]pyrimidine-3-acetic acid] |
| 0.011 µM | 0.094 µM | CCCOc1ccc(-c2sc3c(c2CNS(=O)(=O)C(C)C)c(=O)n(CC(=O)O)c(=O)n3Cc2ccccc2SC)cc1 [11(15), 2,4(1H,3H)-Dioxo-6-(4-propoxyphenyl)-1-(2-methylthiobenzyl)-5-(isopropanesulfonamidomethyl)-thieno[2,3-d]pyrimidine-3-acetic acid] |
